Data taken from patent US9095138B2, “Isoxazoline insecticides” (E.I. du Pont de Nemours and Company, priority 2007, dated 2015).

What was measured:
Type in all cases: in vivo
[1] = tested on: western flower thrips (Frankliniella occidentalis); assay: Test E: control of western flower thrips on Soleil bean plant, contact and/or systemic; conditions: adult thrips, assessed after 6 days, replicated three times
Method: (§1) Test compounds were formulated using a solution containing 10% acetone, 90% water and 300 ppm X-77™ Spreader Lo-Foam Formula non-ionic surfactant containing alkylarylpolyoxyethylene, free fatty acids, glycols and isopropanol (Loveland Industries, Inc. Greeley, Colo., USA). The formulated compounds were applied in 1 mL of liquid through a SUJ2 atomizer nozzle with ⅛ JJ custom body (Spraying Systems Co. Wheaton, Ill., USA) positioned 1.27 cm (0.5 inches) above the top of each test unit. All experimental compounds in these tests were sprayed at 50 ppm, and the test was replicated three times. After spraying of the formulated test compound, each test unit was allowed to dry for 1 h and then a black, screened cap was placed on top. The test units were held for 6 days in a growth chamber at 25° C. and 70% relative humidity. Plant feeding damage was then visually assessed based on foliage consumed and a pest mortality rating was also counted and calculated for each test unit.
For evaluating control of the western flower thrips (Frankliniella occidentalis) through contact and/or systemic means, the test unit consisted of a small open container with a 5-7 day old Soleil Bean plant inside. Test compounds were formulated and sprayed as described for Test A. All experimental compounds in these tests were sprayed at 250 or 50 ppm as noted, and the test was replicated three times. After spraying, the test units were allowed to dry for 1 hour and then 22-27 adult thrips were added to each unit and then a black, screened cap was placed on top. The test units were held for 6 days at 25° C. and 45-55% relative humidity. A mortality rating was assessed along with a plant damage rating for each test unit.

[2] = tested on: diamondback moth (Plutella xylostella); assay: Test A: control of diamondback moth on radish plant, foliar spray; conditions: sprayed at 50 ppm; neonate larvae on radish; assessed after 6 days; replicated three times
Source text: For evaluating control of diamondback moth (Plutella xylostella) the test unit consisted of a small open container with a 12-14-day-old radish plant inside. This was pre-infested with about 50 neonate larvae that were dispensed into the test unit via corn-cob grits using a bazooka inoculator. The larvae moved onto the test plant after being dispensed into the test unit.
as §1

[3] = tested on: fall armyworm (Spodoptera frugiperda); assay: Test B: control of fall armyworm on corn (maize) plant, foliar spray; conditions: sprayed at 50 ppm; 1-day-old larvae on corn; replicated three times
Method: as §1
For evaluating control of fall armyworm (Spodoptera frugiperda) the test unit consisted of a small open container with a 4-5-day-old corn (maize) plant inside. This was pre-infested (using a core sampler) with 10-15 1-day-old larvae on a piece of insect diet. Test compounds were formulated and sprayed at 50 ppm as described for Test A and replicated three times. After spraying, the test units were maintained in a growth chamber and then the control efficacy was rated for each test unit as described for Test A.

Compound	control efficacy (feeding damage or mortality): very good to excellent levels ([1]; sprayed at 50 ppm)	control efficacy (feeding damage or mortality): very good to excellent levels ([1]; sprayed at 250 ppm)	control efficacy (feeding damage or mortality): very good to excellent levels [2]	control efficacy (feeding damage or mortality): very good to excellent levels [3]
C[C@@H](NC(=O)c1ccc(C2=NOC(c3cc(Cl)cc(C(F)(F)F)c3)(C(F)(F)F)C2)c2ccccc12)C(=O)NCC1CC1 (some centres unmarked) [Compound 73]	20% or less feeding damage or 80% or more mortality	20% or less feeding damage or 80% or more mortality	20% or less feeding damage or 80% or more mortality	20% or less feeding damage or 80% or more mortality
CC(C)[C@@H](NC(=O)c1ccc(C2=NOC(c3cc(Cl)cc(C(F)(F)F)c3)(C(F)(F)F)C2)c2ccccc12)C(N)=O (some centres unmarked) [Compound 87]	20% or less feeding damage or 80% or more mortality	–	20% or less feeding damage or 80% or more mortality	20% or less feeding damage or 80% or more mortality
CC(NC(=O)c1ccc(C2=NOC(c3cc(Cl)cc(C(F)(F)F)c3)(C(F)(F)F)C2)c2ccccc12)C(=O)NCC1CC1 (centres unmarked) [Compound 79]	20% or less feeding damage or 80% or more mortality	20% or less feeding damage or 80% or more mortality	20% or less feeding damage or 80% or more mortality	20% or less feeding damage or 80% or more mortality
C[C@@H](NC(=O)c1ccc(C2=NOC(c3cc(Br)cc(C(F)(F)F)c3)(C(F)(F)F)C2)c2ccccc12)C(N)=O (some centres unmarked) [Compound 83]	20% or less feeding damage or 80% or more mortality	–	20% or less feeding damage or 80% or more mortality	20% or less feeding damage or 80% or more mortality
C[C@@H](NC(=O)c1ccc(C2=NOC(c3cc(Cl)cc(C(F)(F)F)c3)(C(F)(F)F)C2)c2ccccc12)C(=O)NC1CC1 (some centres unmarked) [Compound 72]	20% or less feeding damage or 80% or more mortality	20% or less feeding damage or 80% or more mortality	20% or less feeding damage or 80% or more mortality	20% or less feeding damage or 80% or more mortality
C[C@@H](NC(=O)c1ccc(C2=NOC(c3cc(C(F)(F)F)cc(C(F)(F)F)c3)(C(F)(F)F)C2)c2ccccc12)C(=O)NCC1CC1 (some centres unmarked) [Compound 66]	20% or less feeding damage or 80% or more mortality	20% or less feeding damage or 80% or more mortality	20% or less feeding damage or 80% or more mortality	20% or less feeding damage or 80% or more mortality
CC(NC(=O)c1ccc(C2=NOC(c3cc(C(F)(F)F)cc(C(F)(F)F)c3)(C(F)(F)F)C2)c2ccccc12)C(=O)NCC1CC1 (centres unmarked) [Compound 68]	20% or less feeding damage or 80% or more mortality	20% or less feeding damage or 80% or more mortality	20% or less feeding damage or 80% or more mortality	20% or less feeding damage or 80% or more mortality
O=C(CNC(=O)c1ccc(C2=NOC(c3cc(C(F)(F)F)cc(C(F)(F)F)c3)(C(F)(F)F)C2)c2ccccc12)NCC1CC1 (centres unmarked) [Compound 71]	20% or less feeding damage or 80% or more mortality	–	20% or less feeding damage or 80% or more mortality	20% or less feeding damage or 80% or more mortality
O=C(CNC(=O)c1ccc(C2=NOC(c3cc(Cl)cc(Cl)c3)(C(F)(F)F)C2)c2ccccc12)NC1CC1 (centres unmarked) [Compound 50]	20% or less feeding damage or 80% or more mortality	20% or less feeding damage or 80% or more mortality	20% or less feeding damage or 80% or more mortality	20% or less feeding damage or 80% or more mortality
CC(NC(=O)c1ccc(C2=NOC(c3cc(C(F)(F)F)cc(C(F)(F)F)c3)(C(F)(F)F)C2)c2ccccc12)C(=O)O (mixture of isomers) [Compound 31]	–	20% or less feeding damage or 80% or more mortality	20% or less feeding damage or 80% or more mortality	20% or less feeding damage or 80% or more mortality
CC(NC(=O)c1ccc(C2=NOC(c3cc(C(F)(F)F)cc(C(F)(F)F)c3)(C(F)(F)F)C2)c2ccccc12)C(=O)NC1CC1 (centres unmarked) [Compound 67]	20% or less feeding damage or 80% or more mortality	20% or less feeding damage or 80% or more mortality	20% or less feeding damage or 80% or more mortality	20% or less feeding damage or 80% or more mortality
C[C@@H](NC(=O)c1ccc(C2=NOC(c3cc(Cl)cc(Cl)c3)(C(F)(F)F)C2)c2ccccc12)C(=O)NC1CC1 (some centres unmarked) [Compound 53]	20% or less feeding damage or 80% or more mortality	20% or less feeding damage or 80% or more mortality	20% or less feeding damage or 80% or more mortality	20% or less feeding damage or 80% or more mortality
COCCNC(=O)CNC(=O)c1ccc(C2=NOC(c3cc(Cl)cc(Cl)c3)(C(F)(F)F)C2)c2ccccc12 (centres unmarked) [Compound 47]	20% or less feeding damage or 80% or more mortality	20% or less feeding damage or 80% or more mortality	20% or less feeding damage or 80% or more mortality	20% or less feeding damage or 80% or more mortality
O=C(NCCSCC(F)(F)F)c1ccc(C2=NOC(c3cccc(C(F)(F)F)c3)(C(F)(F)F)C2)c2ccccc12 (racemic) [Compound 22]	20% or less feeding damage or 80% or more mortality	20% or less feeding damage or 80% or more mortality	20% or less feeding damage or 80% or more mortality	20% or less feeding damage or 80% or more mortality
CC[C@@H](NC(=O)c1ccc(C2=NOC(c3cc(Cl)cc(C(F)(F)F)c3)(C(F)(F)F)C2)c2ccccc12)C(N)=O (some centres unmarked) [Compound 86]	20% or less feeding damage or 80% or more mortality	–	20% or less feeding damage or 80% or more mortality	20% or less feeding damage or 80% or more mortality
CS(=N)(=O)CCNC(=O)c1ccc(C2=NOC(c3cc(Cl)cc(Cl)c3)(C(F)(F)F)C2)c2ccccc12 (centres unmarked) [Compound 94]	20% or less feeding damage or 80% or more mortality	20% or less feeding damage or 80% or more mortality	20% or less feeding damage or 80% or more mortality	20% or less feeding damage or 80% or more mortality
O=C(CNC(=O)c1ccc(C2=NOC(c3cc(Cl)cc(OC(F)(F)F)c3)(C(F)(F)F)C2)c2ccccc12)NC1CC1 (centres unmarked) [Compound 82]	20% or less feeding damage or 80% or more mortality	–	20% or less feeding damage or 80% or more mortality	20% or less feeding damage or 80% or more mortality
